Experimental data taken from paper PMC3136713, “Health-Beneficial Phenolic Aldehyde in Antigonon leptopus Tea” (Evidence-based Complementary and Alternative Medicine : eCAM, 2010).

Legend:
[1] = molecular target: T1, COX-2 (Homo sapiens, UniProt P35354); assay: O2 uptake cyclooxygenase assay, single concentration; type: biochemical; conditions: read-out: % inhibition at 100 μg/mL
T1 construct: gene PTGS2
T1 sequence (P35354 18-604): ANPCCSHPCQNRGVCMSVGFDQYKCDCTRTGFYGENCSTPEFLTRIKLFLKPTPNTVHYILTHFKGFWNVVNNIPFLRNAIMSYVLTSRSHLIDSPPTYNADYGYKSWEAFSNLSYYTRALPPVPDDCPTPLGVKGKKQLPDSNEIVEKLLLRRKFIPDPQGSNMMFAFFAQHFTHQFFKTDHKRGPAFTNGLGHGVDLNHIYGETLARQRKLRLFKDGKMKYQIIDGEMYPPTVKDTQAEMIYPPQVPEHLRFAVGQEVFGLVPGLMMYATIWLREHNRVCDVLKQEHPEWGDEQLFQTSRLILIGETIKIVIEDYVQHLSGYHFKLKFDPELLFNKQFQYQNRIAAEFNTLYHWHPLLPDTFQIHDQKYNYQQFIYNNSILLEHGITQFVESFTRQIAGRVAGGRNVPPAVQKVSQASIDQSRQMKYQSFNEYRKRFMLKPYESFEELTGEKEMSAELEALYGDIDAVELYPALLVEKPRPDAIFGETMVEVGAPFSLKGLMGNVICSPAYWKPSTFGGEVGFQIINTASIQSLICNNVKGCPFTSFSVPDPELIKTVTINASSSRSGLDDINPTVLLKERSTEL

[2] = molecular target: T2, COX-1 (Ovis aries, UniProt P05979); assay: as above; type: biochemical; conditions: for inhibition at 100 µg/mL: read-out: % inhibition at 100 μg/mL
T2 construct: gene PTGS1
T2 sequence (P05979 25-600): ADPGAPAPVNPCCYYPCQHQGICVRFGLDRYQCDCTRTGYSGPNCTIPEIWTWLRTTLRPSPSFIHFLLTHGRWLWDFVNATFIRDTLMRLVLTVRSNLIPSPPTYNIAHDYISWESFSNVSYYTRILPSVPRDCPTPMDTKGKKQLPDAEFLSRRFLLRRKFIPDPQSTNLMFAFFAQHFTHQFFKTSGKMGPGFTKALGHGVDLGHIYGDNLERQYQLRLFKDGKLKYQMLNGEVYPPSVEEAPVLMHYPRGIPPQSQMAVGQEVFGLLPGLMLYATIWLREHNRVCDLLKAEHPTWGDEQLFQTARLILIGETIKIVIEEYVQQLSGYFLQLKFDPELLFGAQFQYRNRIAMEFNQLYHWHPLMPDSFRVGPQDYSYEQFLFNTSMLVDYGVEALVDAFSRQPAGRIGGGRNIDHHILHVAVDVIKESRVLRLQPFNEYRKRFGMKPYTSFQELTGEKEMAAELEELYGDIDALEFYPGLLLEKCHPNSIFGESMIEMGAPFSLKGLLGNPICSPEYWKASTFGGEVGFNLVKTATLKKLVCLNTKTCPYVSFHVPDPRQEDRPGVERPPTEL

[3] = molecular target: T2, COX-1; assay: O2 uptake cyclooxygenase assay, ram seminal vesicle COX-1; […] inhibition at […]; type: biochemical
[4] = molecular target: T1, COX-2; assay: biochemical; conditions: read-out: % inhibition at 32 nM

Q: For O=Cc1cc(O)ccc1O [compound 7, 2,5-dihydroxy benzaldehyde], which inhibition at 100 µg/mL [1] is on record?
A: 61%

Q: With O=Cc1c(O)cc(O)cc1O [compound 11, 2,4,6-trihydroxy benzaldehyde] as the compound, how does the “% inhibition at 100 μg/mL” value [2] read?
A: 86

Q: CC(=O)Oc1ccccc1C(=O)O [Aspirin] was tested. Which “% inhibition at 60 μM” value [3] did it give?
A: 69

Q: How did the inhibition at 0.032 µM [4] turn out when CS(=O)(=O)c1ccc(C2=C(c3ccccc3)C(=O)OC2)cc1 [Vioxx] was run?
A: 91%

Q: How did the inhibition at 100 µg/mL [2] turn out when O=Cc1cccc(O)c1O [compound 5, 2,3-dihydroxy benzaldehyde] was run?
A: 68%

Q: COc1ccccc1C=O [compound 14, Compound 14] was tested. Which inhibition at 100 µg/mL [2] did it give?
A: 83%

Q: For COc1cc(C=O)cc(OC)c1 [compound 21, Compound 21], which inhibition at 100 µg/mL [2] is on record?
A: 85%

Q: O=Cc1cc(O)cc(O)c1 [compound 9, 3,5-dihydroxy benzaldehyde] was tested. Which inhibition at 100 µg/mL [2] did it give?
A: 82%
